pIC50: −log10 of the molar value. Entries after “also recorded” stand apart in the source; their conditions may differ. Like-named read-outs stand apart in the source and are kept apart here. Blank lines part the entries; values can stand above or below the molecule they belong to.
Columns and labels:
mushroom tyrosinase = mushroom tyrosinase (Agaricus bisporus, UniProt C7FF04); experiment: Tyrosinase inhibition assay (L-DOPA to dopachrome, absorbance at 450 nm); type: biochemical
Method: (§1) A tyrosinase inhibition assay was carried out using the method reported by Jones et al. (2002) Pigment. Cell Res. 15:335. Using this method, the conversion of L-Dopa, a substrate of tyrosinase, into dopachrome is followed by monitoring absorption at 450 nm. Tyrosinase was prepared in 50 mM potassium phosphate buffer, pH 6.8 (assay buffer) at 2000 U/ml and stored at −20° C. in 1 ml aliquots prior to use. For use in assays, stock enzyme solutions were thawed and diluted to 200 U/ml with assay buffer. A 2 mM working solution of substrate, L-DOPA, was prepared in assay buffer for each assay. Samples were dissolved in 10% DMSO (0.5 ml) and diluted to 5 ml with assay buffer. The reaction mixture consisted of 0.050 ml 2 mM L-DOPA, 0.050 ml 200 U/ml mushroom tyrosinase and 0.050 ml inhibitor. Reaction volume was adjusted to 200 μl with assay buffer. Assays were performed in 96 well Falcon 3097 flat-bottom microtiter plates (Beckton Dickinson, N.J.). Appearance of dopachrome was measured with a WALLAC 1420 Multilable Counter (Turku, Finland). Average velocity was determined from linear enzyme rate as measured by change in absorbance (ΔA450) at 450 nm per minute. Percent inhibition of tyrosinase by test samples was determined by comparison of absorbance of samples versus control using formula (I): (Negative control absorption-sample absorption)/Negative control absorption×100 (1)
Inhibition of tyrosinase by synthetic diarylalkanes was measured using the method described in Example 2. The IC50 value of each sample was calculated using kinetics software to verify that the reaction was linear at a specified time and concentration.

B16 F1 cells [1] = experiment: Inhibition of melanin production in B16 F1 cells without β-MSH induction (endogenous); type: cell-based, mouse; details: for Inhibition of melanin production relative to kojic acid, in words: B-16 cell line model, with and without β-MSH induction
From the text: (§2) Color development was visually monitored each morning.

B16 F1 cells [2] = experiment: Inhibition of melanin production in B16 F1 cells with β-MSH induction; type: cell-based, mouse
From the text: as §2

tyrosinase = experiment: Enzyme inhibition kinetics with L-DOPA as substrate; type: biochemical, mushroom
Method: as §1, with “A 2 mM working solution of substrate, L-DOPA, was prepared in assay buffer for each assay.” left out, “The reaction mixture consisted of 0.050 ml 2 mM L-DOPA, 0.050 ml 200 U/ml mushroom tyrosinase and 0.050 ml inhibitor.” left out

B16 F1 cells [3] = experiment: Cell toxicity assay, lactate dehydrogenase (LDH)
Method: The inhibition of melanin production was evaluated using two different assays. In the first assay, the inhibition of melanin production was evaluated without induction by β-MSH; whereas in the second assay the inhibition of melanin production was measured with β-MSH induction in cell culture medium. Briefly, B16 F1 cells (ATCC #CRL-622) were grown to confluency and then seeded at 40,000 cells per well. The cells were allowed to attach overnight at 37° C. in a humidified environment containing 5% CO2. On day 2, inhibitors were added to the cells at concentrations ranging from 0-1000 μM in triplicate and allowed to incubate for four days. The amount of β-MSH required to induce melanin formation was determined by the addition of hormone at concentrations ranging from 0-1000 nM in ten-fold increments. Once the proper β-MSH concentration was determined, cells were seeded as above, allowed to attach overnight and then co-incubated with tyrosinase inhibitors at concentrations ranging from 0-1000 μM. Color development was visually monitored each morning. After the development of color, 200 μl of cell supernatant was removed from each well and absorbance was measured at 450 nm. The resulting readings were used to determine the IC50 for melanin formation in the cell assay with and without β-MSH induction. For an initial comparison of cell toxicity, the 250 μM treated wells were used to perform a lactate dehydrogenase assay (LDH). LDH is a metabolic enzyme that leaks out of damaged or dead cells. The enzyme converts a chromophore in the presence of NAD^+ to yield a color change that can be monitored spectrophotometrically.
The compound treated wells were used to perform a lactate dehydrogenase assay (LDH). LDH is a metabolic enzyme that leaks out of damaged or dead cells. The enzyme converts a chromophore in the presence of NAD^+ to yield a color change that can be monitored spectrophotometrically. The cytotoxicity was examined at a concentration of 250 μM. […] It should be noted however, that cytotoxicity at only one concentration (250 μM) was tested.

[4] = system: B16 F1 murine melanoma cells; details: read-out: IC50, melanin biosynthesis; cited from earlier work
DOPA oxidase activity = details: cited from earlier work
[5] = biological target: human tyrosinase hydroxylase activity (Homo sapiens (Human), UniProt P14679); details: cited from earlier work
human tyrosinase hydroxylase activity, sequence (P14679 19-529): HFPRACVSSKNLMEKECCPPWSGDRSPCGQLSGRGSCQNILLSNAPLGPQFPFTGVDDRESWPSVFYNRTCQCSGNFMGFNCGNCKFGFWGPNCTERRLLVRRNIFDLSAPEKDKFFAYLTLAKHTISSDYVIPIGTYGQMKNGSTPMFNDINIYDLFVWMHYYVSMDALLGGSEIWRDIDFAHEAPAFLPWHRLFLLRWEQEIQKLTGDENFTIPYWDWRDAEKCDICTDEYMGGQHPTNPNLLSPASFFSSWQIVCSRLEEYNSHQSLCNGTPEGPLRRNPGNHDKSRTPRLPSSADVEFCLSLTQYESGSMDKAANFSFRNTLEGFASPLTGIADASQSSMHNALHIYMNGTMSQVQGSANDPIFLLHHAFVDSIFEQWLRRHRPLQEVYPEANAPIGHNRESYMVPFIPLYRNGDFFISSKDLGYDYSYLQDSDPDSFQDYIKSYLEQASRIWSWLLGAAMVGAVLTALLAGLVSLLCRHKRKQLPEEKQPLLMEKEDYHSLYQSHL

[6] = Table 2, synthetic diarylalkanes and/or diarylalkanols, read-out: Tyrosinase Inhibition (IC50)
[7] = read-out: IC50 for inhibition of tyrosinase
[8] = Mus musculus, B16 F1 cells, without β-MSH induction, read-out: IC50 for melanin formation, endogenous experiment
[9] = Table 3, mouse B16 F1 cells, no β-MSH, read-out: Endogenous Melanin Inhibition IC50
[10] = Mus musculus, B16 F1 cells, with β-MSH induction, read-out: IC50 for melanin formation, induced experiment
[11] = Table 3, mouse B16 F1 cells, β-MSH induction, read-out: MSH Induced Melanin Inhibition IC50

mushroom tyrosinase, sequence (C7FF04 1-392 limits assumed): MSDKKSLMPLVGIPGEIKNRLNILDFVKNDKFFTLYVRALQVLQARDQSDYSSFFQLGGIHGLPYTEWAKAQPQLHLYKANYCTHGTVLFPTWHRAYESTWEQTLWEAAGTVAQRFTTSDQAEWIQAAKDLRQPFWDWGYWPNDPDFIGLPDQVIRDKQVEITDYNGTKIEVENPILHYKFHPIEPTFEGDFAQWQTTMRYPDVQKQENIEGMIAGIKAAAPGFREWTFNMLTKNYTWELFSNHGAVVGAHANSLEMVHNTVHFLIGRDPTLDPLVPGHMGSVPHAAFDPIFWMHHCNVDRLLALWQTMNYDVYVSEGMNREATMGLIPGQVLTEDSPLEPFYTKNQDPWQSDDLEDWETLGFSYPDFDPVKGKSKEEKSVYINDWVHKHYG

SMILES: COc1ccc(C(O)CCc2ccc3c(c2)OCCCCO3)c(O)c1 (centres unmarked) [1-(2-hydroxy-4-methoxyphenyl)-3-(2′,3′,4′,5′-tetrahydro-benzo(b)dioxoin-8′-yl)-1-propanol]
pIC50 (mushroom tyrosinase; [6]): 4.14 | pIC50 (mushroom tyrosinase; [7]): 4.14

SMILES: COc1ccc(C(O)CCc2ncc(Cl)n2C)c(O)c1 (centres unmarked) [3-(5′-chloro-1′-methyl-1′-hydro-imidazol-2′-yl)-1-(2-hydroxy-4-methoxyphenyl)-1-propanol]
pIC50 (mushroom tyrosinase; [6]): 3.65 | pIC50 (mushroom tyrosinase; [7]): 3.65

SMILES: CC(=O)Cc1cc(=O)c2c(C)cc(O)c([C@@H]3O[C@H](CO)[C@@H](O)[C@H](O)[C@H]3O)c2o1 [aloesin]
pIC50 [4]: 3.78 | pIC50 (DOPA oxidase activity): 3.15 | pIC50 [5]: 3.04

SMILES: OC[C@H]1O[C@@H](Oc2ccc(O)cc2)[C@H](O)[C@@H](O)[C@@H]1O [arbutin]
pIC50 (DOPA oxidase activity): 2.52

SMILES: COc1cc(CCC(O)c2ccc(O)cc2O)ccc1O (centres unmarked) [1-(2,4-dihydroxyphenyl)-3-(3′-methoxy-4′-hydroxyphenyl)-1-propanol]
Tyrosinase inhibitory activity in words (mushroom tyrosinase): quite strong tyrosinase inhibitory activity

SMILES: O=c1cc(CO)occ1O [Kojic acid, kojic acid, reference compound]
pIC50 (B16 F1 cells [1]; [8]): 3.77 | pIC50 (B16 F1 cells [1]; [9]): 3.77 | pIC50 (DOPA oxidase activity): 3.39 | pIC50 (B16 F1 cells [2]; [10]): 4.17 | pIC50 (B16 F1 cells [2]; [11]): 4.17 | Time until tyrosinase activity was totally restored following incubation (tyrosinase): 1 h | Cell Toxicity (LDH) (B16 F1 cells [3]; 250 μM treated wells): 0.260

Second part, led by results:

pIC50 (B16 F1 cells [1]; [8]): 4.55 | pIC50 (B16 F1 cells [1]; [9]): 4.55 | pIC50 (B16 F1 cells [2]; [10]): 4.40 | pIC50 (B16 F1 cells [2]; [11]): 4.40 | Tyrosinase inhibitory activity in words (mushroom tyrosinase): strong tyrosinase inhibitory activity | Resumption of tyrosinase activity after incubation with inhibitor (tyrosinase): not resumed for several days | Type of tyrosinase inhibition (tyrosinase; inhibitor 0, 261, 522, 1044 nM, L-DOPA 0.75, 1.25, 2.5 mM): powerful competitive inhibitor
SMILES: COc1ccc(CCCc2ccc(O)cc2O)c(OC)c1C [UP302a, 1-(3-methyl-2,4-dimethoxyphenyl)-3-(2′,4′-dihydroxyphenyl)-propane]
Inhibition of melanin production relative to kojic acid, in words (B16 F1 cells [1]): at least as good, if not better inhibitors than kojic acid | Inhibition of MSH induced melanin production relative to kojic acid (B16 F1 cells [2]; B-16 cell line): significantly greater than kojic acid | Cell Toxicity (LDH) (B16 F1 cells [3]; mouse, 4 days, 250 μM): 0.265

pIC50 (mushroom tyrosinase; [6]): 4.52
SMILES: COc1ccc(O)c(C(O)CCc2ccc(OC)c(OC)c2)c1 (stereo not drawn) [l-(2-hydroxy-5-methoxyphenyl)-3-(3′,4′-dimethoxyphenyl)-1-propanol]

pIC50 (B16 F1 cells [1]; [9]): 3.97 | pIC50 (B16 F1 cells [2]; [11]): 3.98
SMILES: COc1ccc(O)c(CCCc2ccc(O)cc2OC)c1 [UP288, 1-(2-methoxy-4-hydroxyphenyl)-3-(2′-hydroxy-5′-methoxyphenyl)-propane]
Inhibition of melanin production relative to kojic acid, in words (B16 F1 cells [1]): comparable to kojic acid; also recorded: at least as good, if not better inhibitors than kojic acid | Tyrosinase inhibitory activity in words (mushroom tyrosinase): as potent a tyrosinase inhibitor as kojic acid; also recorded: strong tyrosinase inhibition activity | Cell Toxicity (LDH) (B16 F1 cells [3]; mouse, 4 days, 250 μM): 0.315
